Test: Safety and tolerability (adverse events, laboratory tests, ECG), multiple-ascending-dose phase 1 study
Format: in vivo
Source text: Subjects were monitored closely with serial physical examinations, blood evaluations, and 12-lead ECGs. Subjects underwent safety laboratory testing, including measurement of blood cell counts (white blood cell [WBC] with differential, hemoglobin, and platelets), serum chemistry (sodium, potassium, chloride, calcium, bicarbonate, glucose, creatinine, blood urea nitrogen [BUN], creatine kinase [CK], aspartate aminotransferase [AST], alanine aminotransferase [ALT], alkaline phosphatase [ALP], total bilirubin, protein, albumin, amylase, and lipase) and urinalysis (protein, blood, and glucose). Study halting criteria had been established and were reviewed by an independent safety monitor (ISM) and the Safety Monitoring Committee (SMC) prior to proceeding with dosing within a cohort or to the next cohort.
The safety population included all subjects who received at least one dose of the study drug. The safety and tolerability of CRS3123 were evaluated by the sequential review of reported adverse events (AEs), changes from baseline in physical examination findings, vital sign measurements, safety laboratory tests (hematology, clinical chemistry, and urinalysis), and key 12-lead ECG findings. All safety assessments were summarized with descriptive statistics or frequency counts.
The period of observation for AE reporting began on day 1 at the time of study drug administration and continued through the final visit.
All AEs were coded to system organ class (SOC) and preferred term (PT) using the Medical Dictionary for Regulatory Activities (MedDRA), version 17.0 (https://www.meddra.org/). A treatment-emergent AE (TEAE) was defined as any AE that occurred during the study observation period (i.e., from day 1 at the time of study drug administration through the final visit). An AE with a partial onset date was classified as a TEAE if the reported partial onset date could not definitely be identified as before the date of study drug administration. Any AE with a missing onset date or missing time on day of study drug administration was classified as a TEAE.
To count the overall number of subjects who experienced each TEAE and calculation of an occurrence rate, a subject experiencing multiple occurrences of an AE was counted only once for that PT. Similarly, if a subject experienced multiple TEAEs within the same SOC, that subject was counted once to calculate an occurrence rate for the SOC. To count the number of subjects who experienced each TEAE by severity classification (mild, moderate, severe, and life-threatening) and calculate an occurrence rate, a subject experiencing multiple occurrences of an AE of the same severity was counted once in that particular severity classification for that PT. If a subject experienced multiple occurrences of an AE of differing severities, only the most severe occurrence within each PT was counted.

[1] = all TEAEs, Cohort B, 400 mg Q12h (n = 8)
[2] = all TEAEs, Cohort C, 600 mg Q12h (n = 8)
[3] = treatment-related AEs, All active (n = 24)
[4] = treatment-related AEs, Cohort A, 200 mg Q12h (n = 8)
[5] = treatment-related AEs, Cohort B, 400 mg Q12h (n = 8)
[6] = treatment-related AEs, Cohort C, 600 mg Q12h (n = 8)

O=c1cc(NCCCN[C@@H]2CCOc3c(Br)cc(Br)cc32)[nH]c2ccsc12 [CRS3123]
No. (%) of subjects: Dry skin [1]: 1 (12.5) | No. (%) of subjects: Dysgeusia [1]: 1 (12.5) | No. (%) of subjects: Ear and labyrinth disorders (system organ class) [1]: 0 (0.0) | No. (%) of subjects: Ear discomfort [1]: 0 (0.0) | No. (%) of subjects: Erythema [1]: 1 (12.5) | No. (%) of subjects: Gastrointestinal disorders (system organ class) [1]: 2 (25.0) | No. (%) of subjects: General disorders and administration site conditions (system organ class) [1]: 0 (0.0) | No. (%) of subjects: Headache [1]: 1 (12.5) | No. (%) of subjects: Hemoglobin decreased [1]: 1 (12.5) | No. (%) of subjects: Infections and infestations (system organ class) [1]: 0 (0.0) | No. (%) of subjects: Infusion site thrombosis [1]: 0 (0.0) | No. (%) of subjects: Injury, poisoning, and procedural complications (system organ class) [1]: 0 (0.0) | No. (%) of subjects: Investigations (system organ class) [1]: 4 (50.0) | No. (%) of subjects: Lipase increased [1]: 2 (25.0) | No. (%) of subjects: Myalgia [1]: 1 (12.5) | No. (%) of subjects: Nervous system disorders (system organ class) [1]: 2 (25.0) | No. (%) of subjects: Oropharyngeal pain [1]: 0 (0.0) | No. (%) of subjects: Psychiatric disorders (system organ class) [1]: 0 (0.0) | No. (%) of subjects: Respiratory, thoracic, and mediastinal disorders (system organ class) [1]: 1 (12.5) | No. (%) of subjects: Skin and subcutaneous tissue disorders (system organ class) [1]: 2 (25.0) | No. (%) of subjects: Subjects with TEAEs [1]: 6 (75.0) | No. (%) of subjects: Throat irritation [1]: 1 (12.5) | No. (%) of subjects: Upper respiratory tract infection [1]: 0 (0.0) | No. (%) of subjects: White blood cell count increased [1]: 0 (0.0) | No. (%) of subjects: Alanine aminotransferase increased [2]: 2 (25.0) | No. (%) of subjects: Amylase increased [2]: 1 (12.5) | No. (%) of subjects: Anxiety [2]: 0 (0.0) | No. (%) of subjects: Arthropod bite [2]: 0 (0.0) | No. (%) of subjects: Aspartate aminotransferase increased [2]: 2 (25.0) | No. (%) of subjects: Blood bilirubin increased [2]: 1 (12.5) | No. (%) of subjects: Blood calcium increased [2]: 0 (0.0) | No. (%) of subjects: Blood potassium increased [2]: 0 (0.0) | No. (%) of subjects: Blood pressure, diastolic, decreased [2]: 1 (12.5) | No. (%) of subjects: Blood pressure, diastolic, increased [2]: 1 (12.5) | No. (%) of subjects: Blood pressure, systolic, decreased [2]: 0 (0.0) | No. (%) of subjects: Blood pressure, systolic, increased [2]: 1 (12.5) | No. (%) of subjects: Diarrhea [2]: 0 (0.0) | No. (%) of subjects: Dry skin [2]: 0 (0.0) | No. (%) of subjects: Dysgeusia [2]: 0 (0.0) | No. (%) of subjects: Ear and labyrinth disorders (system organ class) [2]: 0 (0.0) | No. (%) of subjects: Ear discomfort [2]: 0 (0.0) | No. (%) of subjects: Erythema [2]: 0 (0.0) | No. (%) of subjects: Gastrointestinal disorders (system organ class) [2]: 0 (0.0) | No. (%) of subjects: General disorders and administration site conditions (system organ class) [2]: 1 (12.5) | No. (%) of subjects: Headache [2]: 0 (0.0) | No. (%) of subjects: Hemoglobin decreased [2]: 1 (12.5) | No. (%) of subjects: Infections and infestations (system organ class) [2]: 0 (0.0) | No. (%) of subjects: Infusion site thrombosis [2]: 1 (12.5) | No. (%) of subjects: Injury, poisoning, and procedural complications (system organ class) [2]: 0 (0.0) | No. (%) of subjects: Investigations (system organ class) [2]: 6 (75.0) | No. (%) of subjects: Lipase increased [2]: 2 (25.0) | No. (%) of subjects: Musculoskeletal and connective tissue disorders (system organ class) [2]: 0 (0.0) | No. (%) of subjects: Myalgia [2]: 0 (0.0) | No. (%) of subjects: Nervous system disorders (system organ class) [2]: 0 (0.0) | No. (%) of subjects: Oropharyngeal pain [2]: 1 (12.5) | No. (%) of subjects: Psychiatric disorders (system organ class) [2]: 0 (0.0) | No. (%) of subjects: Respiratory, thoracic, and mediastinal disorders (system organ class) [2]: 1 (12.5) | No. (%) of subjects: Skin and subcutaneous tissue disorders (system organ class) [2]: 0 (0.0) | No. (%) of subjects: Subjects with TEAEs [2]: 6 (75.0) | No. (%) of subjects: Throat irritation [2]: 0 (0.0) | No. (%) of subjects: Upper respiratory tract infection [2]: 0 (0.0) | No. (%) of subjects: White blood cell count increased [2]: 0 (0.0) | withdrawals due to TEAEs (all doses): No subjects were withdrawn | No. (%) of subjects: Alanine aminotransferase increased [3]: 1 (4.2) | No. (%) of subjects: Diarrhea [3]: 1 (4.2) | No. (%) of subjects: Dysgeusia [3]: 1 (4.2) | No. (%) of subjects: Gastrointestinal disorders (system organ class) [3]: 1 (4.2) | No. (%) of subjects: Investigations (system organ class) [3]: 1 (4.2) | No. (%) of subjects: Lipase increased [3]: 0 (0.0) | No. (%) of subjects: Nervous system disorders (system organ class) [3]: 1 (4.2) | No. (%) of subjects: Subjects with TEAEs [3]: 3 (12.5) | No. (%) of subjects: Alanine aminotransferase increased [4]: 0 (0.0) | No. (%) of subjects: Diarrhea [4]: 0 (0.0) | No. (%) of subjects: Dysgeusia [4]: 0 (0.0) | No. (%) of subjects: Gastrointestinal disorders (system organ class) [4]: 0 (0.0) | No. (%) of subjects: Investigations (system organ class) [4]: 0 (0.0) | No. (%) of subjects: Lipase increased [4]: 0 (0.0) | No. (%) of subjects: Nervous system disorders (system organ class) [4]: 0 (0.0) | No. (%) of subjects: Alanine aminotransferase increased [5]: 0 (0.0) | No. (%) of subjects: Diarrhea [5]: 1 (12.5) | No. (%) of subjects: Dysgeusia [5]: 1 (12.5) | No. (%) of subjects: Gastrointestinal disorders (system organ class) [5]: 1 (12.5) | No. (%) of subjects: Investigations (system organ class) [5]: 0 (0.0) | No. (%) of subjects: Lipase increased [5]: 0 (0.0) | No. (%) of subjects: Nervous system disorders (system organ class) [5]: 1 (12.5) | No. (%) of subjects: Alanine aminotransferase increased [6]: 1 (12.5) | No. (%) of subjects: Diarrhea [6]: 0 (0.0) | No. (%) of subjects: Dysgeusia [6]: 0 (0.0) | No. (%) of subjects: Gastrointestinal disorders (system organ class) [6]: 0 (0.0) | No. (%) of subjects: Investigations (system organ class) [6]: 1 (12.5) | No. (%) of subjects: Lipase increased [6]: 0 (0.0) | No. (%) of subjects: Nervous system disorders (system organ class) [6]: 0 (0.0) | severity of TEAEs (whole study): majority of TEAEs reported in the study were of mild severity

From publication PMC7187627 (Antimicrobial Agents and Chemotherapy, 2019)
